In article PMC12534982 (Journal of Experimental & Clinical Cancer Research : CR, 2025):

How the values were obtained:
Assay type in all cases: cell-based, human
[1] = test system: colorectal cancer cells; assay: Intracellular ATP levels (CellTiter-Glo); details: 25 µM
Procedure: Luminescence readings were recorded with a Victor Multilabel Plate Reader (PerkinElmer Life Sciences, Massachusetts, USA).

[2] = test system: FBS-starved cancer cells; assay: Serum starvation of cancer cells (CellTiter-Glo); details: 25 µM, 24 h, FBS-free
Procedure: Cancer cells (7.5 × 10^3) were cultured in a 96-well plate in DMEM (fortified with 10% FBS) for 24 h. Subsequently, the cells were subjected to serum starvation (FBS-free DMEM) and treated with either DMSO or NK-A 17E-233I (25 µM) for an additional 24 h. Cell proliferation was measured using the CellTiter-Glo reagent as previously described.

[3] = test system: colorectal cancer cells; assay: Cleaved caspase-3 by flow cytometry; details: 25 µM, 48 h
Procedure: Cancer cells (3 × 10^4) were cultured in 48-well plates and treated with DMSO or NK-A 17E-233I (25 µM) for 48 h. Following treatment, the cells were harvested, and the supernatant was discarded. Cell pellets were resuspended in 4% methanol-free paraformaldehyde (PFA, #28908; Thermo Fisher Scientific) while vortexing and incubated in the dark at room temperature for 15 min. One milliliter of PBS was added to all tubes, followed by centrifugation at 500 × g for 5 min. The supernatant was discarded, and the pellets were permeabilized using 90% cold methanol with incubation on ice for 10 min. Subsequently, 1 mL of 0.5% BSA (#A3059; Sigma-Aldrich) was added, and the samples were centrifuged at 500 × g for 5 min. The supernatant was discarded, and the pellets were resuspended in 0.5% BSA. The anti–caspase-3 (p17, Cleaved-Asp175) primary antibody (#9661; Cell Signaling, dilution 1:800) was used to incubate samples at room temperature for 1 h. Afterwards, 0.5% BSA was added, and the tubes were centrifuged at 500 × g for 5 min. The supernatant was discarded, and the pellets were resuspended in 0.5% BSA. The samples were then incubated with F(ab')2-Goat anti-Rabbit IgG (H + L) Cross-Adsorbed Secondary Antibody, Alexa Fluor 633 (#A-21072; Invitrogen, dilution 1:1000) in the dark at room temperature for 30 min. […]

[4] = test system: SW620 cells; assay: DHODH-dependent respiration (permeabilized cells); details: 24 h; NK-A 17E-233I 25 µM, Brequinar 100 µM; excess exogenous DHO
Procedure: Cells were resuspended in MiR05 medium and transferred into the chambers of the Oxygraph-2k instruments. The OCR in digitonin-permeabilized cells was monitored in the presence of the complex I inhibitor (0.5 μM rotenone), 1 mM DHO, 3 mM ADP, 10 μM cytochrome c, and 30 μM Leflunomide. DHODH-mediated respiration was calculated by subtracting the residual respiration rate after the addition of 30 μM Leflunomide from the respiration rate measured in the presence of 0.5 μM rotenone, 1 mM DHO, 3 mM ADP, and 10 μM cytochrome c.

[5] = test system: SW620 cells; assay: Glutathione assay (GSH/GSSG); details: 25 µM, 24 h
Procedure: Optical density measurements were recorded at 450 nm using a Victor Multilabel Plate Reader.

## COc1cc(C)c(Oc2cc(C)cc(O)c2O)c(O)c1 [NK-A 17E-233I]
[1]; 200 µM uridine, various time points
  ATP production / proliferation with non-physiological uridine: did not impact the production of ATP or cancer cell proliferation
[1]; up to 24 h
  levels of ATP: reduced
[2]
  effect on starved cancer cells: no significant effect
[3]
  active caspase-3 staining: significantly increased
[4]
  DHODH-mediated oxygen consumption rate: reduced
[5]
  GSH/GSSG ratio: significantly decreased
  oxidized glutathione (GSSG) levels: increasing
  reduced glutathione (GSH) levels: significantly decreased
